The assay deals with human mGlu5a receptor (Homo sapiens (Human), UniProt P41594). As to the kind of experiment: Intracellular Ca2+ mobilization assay (mGlu5 PAM). The assay is classed as cell-based. Conditions: for EC50: HEK-293 cells stably transfected with human mGlu5a, L-glutamate added at EC20 after pre-incubation with test compound, read-out: EC50 (nM) mGlu5PAM; for Emax: maximal response in % of the maximal stimulatory effect obtained with saturating concentrations of L-glutamate, read-out: Eff. (%). The procedure, abridged: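 HEK-293 cells stably expressing human mGlu5a at low level were loaded with Fluo-4AM and preincubated 10–30 min at 37 °C with 11-point half-log compound dilutions. L-glutamate was then added at its daily-determined EC20 (typically around 80 μM). Peak fluorescence minus basal, normalized to maximal glutamate effect, was fitted to give EC50, Hill slope and maximal response.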
A general note: A change in cytosolic calcium serves as a functional read-out for many receptors and channels.

Structures are written as SMILES.

EC50 and Emax data for seven compounds are collected here from US9315498B2, “Arlethynyl derivatives” (Hoffmann-La Roche Inc., priority 2010, dated 2016).

Chain of human mGlu5a receptor (P41594 other isoform, or with tags, fused parts or gaps): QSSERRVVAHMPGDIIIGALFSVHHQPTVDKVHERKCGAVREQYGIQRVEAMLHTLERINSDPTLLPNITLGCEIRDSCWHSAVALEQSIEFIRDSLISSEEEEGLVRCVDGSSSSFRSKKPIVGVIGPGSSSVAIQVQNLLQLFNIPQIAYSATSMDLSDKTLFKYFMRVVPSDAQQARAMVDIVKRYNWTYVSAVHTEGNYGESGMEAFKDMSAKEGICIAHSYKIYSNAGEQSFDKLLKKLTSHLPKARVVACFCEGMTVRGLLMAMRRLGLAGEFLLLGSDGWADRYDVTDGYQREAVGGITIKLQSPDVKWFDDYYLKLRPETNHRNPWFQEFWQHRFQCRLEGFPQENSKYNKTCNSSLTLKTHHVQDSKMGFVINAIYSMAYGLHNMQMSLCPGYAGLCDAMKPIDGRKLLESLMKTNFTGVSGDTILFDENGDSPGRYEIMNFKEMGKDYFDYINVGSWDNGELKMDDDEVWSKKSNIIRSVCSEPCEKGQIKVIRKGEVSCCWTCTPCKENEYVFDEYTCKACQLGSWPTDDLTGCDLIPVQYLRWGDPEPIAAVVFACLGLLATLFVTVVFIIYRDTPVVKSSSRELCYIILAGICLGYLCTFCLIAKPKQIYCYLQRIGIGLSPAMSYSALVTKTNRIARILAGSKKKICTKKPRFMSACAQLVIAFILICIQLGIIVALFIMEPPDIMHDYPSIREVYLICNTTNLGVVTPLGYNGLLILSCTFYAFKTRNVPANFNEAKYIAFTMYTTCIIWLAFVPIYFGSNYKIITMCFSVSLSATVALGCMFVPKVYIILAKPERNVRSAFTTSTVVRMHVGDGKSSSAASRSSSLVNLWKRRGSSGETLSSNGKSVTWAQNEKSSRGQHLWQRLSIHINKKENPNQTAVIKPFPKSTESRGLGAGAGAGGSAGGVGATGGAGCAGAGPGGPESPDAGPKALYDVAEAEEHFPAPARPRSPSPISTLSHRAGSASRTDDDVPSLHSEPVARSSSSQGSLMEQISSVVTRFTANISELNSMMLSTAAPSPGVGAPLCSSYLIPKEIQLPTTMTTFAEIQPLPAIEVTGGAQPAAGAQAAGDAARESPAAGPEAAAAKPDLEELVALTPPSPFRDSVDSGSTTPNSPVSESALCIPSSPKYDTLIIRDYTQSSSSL

With `CC1(C)CCN(c2cnc(C#Cc3ccccc3)cn2)C(=O)N1` [Example 164, 4,4-Dimethyl-1-(5-(phenylethynyl)pyrazin-2-yl)tetrahydropyrimidin-2(1H)-one], the concentration for a half-maximal effect (EC50) came out at 329 nM and the Emax was 89%.

For the compound `CN1C(=O)N(c2cnc(C#Cc3ccccc3)cn2)CCC1(C)C` [Example 165, 3,4,4-Trimethyl-1-(5-(phenylethynyl)pyrazin-2-yl)tetrahydropyrimidin-2(1H)-one], the EC50 was 36 nM and the Emax came to 55%.

Consider `CC1(C)CCN(c2cnc(C#Cc3cccc(F)c3)cn2)C(=O)N1` [Example 166, 1-(5-((3-Fluorophenyl)ethynyl)pyrazin-2-yl)-4,4-dimethyltetrahydropyrimidin-2(1H)-one], for which the 50% effective concentration (EC50) was 140 nM and the Emax was determined as 56%.

With `CN1C(=O)N(c2cnc(C#Cc3cccc(F)c3)cn2)CCC1(C)C` [Example 167, 1-(5-((3-Fluorophenyl)ethynyl)pyrazin-2-yl)-3,4,4-trimethyltetrahydropyrimidin-2(1H)-one], the EC50 was 26 nM and the Emax amounted to 54%.

As for `CC1(C)CCN(c2cnc(C#Cc3ccccc3)cn2)C(=O)O1` [Example 168, 6,6-Dimethyl-3-(5-(phenylethynyl)pyrazin-2-yl)-1,3-oxazinan-2-one], the concentration giving a half-maximal response (EC50) came out at 15 nM and the Emax came to 41%.

As for `CC1(C)CN(c2ccc(C#Cc3ccccc3)cn2)C(=O)CO1` [Example 172, 6,6-Dimethyl-4-(5-phenylethynyl-pyridin-2-yl)-morpholin-3-one], the concentration giving a half-maximal response (EC50) came to 29 nM and the Emax stood at 82%.

On to `O=C1CS(=O)(=O)CCN1c1ccc(C#Cc2ccccc2)cn1` [Example 173, 1,1-Dioxo-4-(5-phenylethynyl-pyridin-2-yl)-thiomorpholin-3-one], for which the half-maximal effective concentration (EC50) came out at 29 nM and the Emax came out at 82%.

As usually defined, the EC50 is the concentration that produces a half-maximal response.
